The term IC50 denotes the concentration at which inhibition is half-maximal.

What all share (format): biochemical
Assay [1] deals with T1, recombinant human PKG1-beta (Homo sapiens, UniProt Q13976).
T1 construct: PKG1-beta (full-length, with N-terminal His-tag); His-tag (N); purchased Millipore GmbH, Schwalbach, Germany
T1 sequence (Q13976 1-686 isoform Q13976-2): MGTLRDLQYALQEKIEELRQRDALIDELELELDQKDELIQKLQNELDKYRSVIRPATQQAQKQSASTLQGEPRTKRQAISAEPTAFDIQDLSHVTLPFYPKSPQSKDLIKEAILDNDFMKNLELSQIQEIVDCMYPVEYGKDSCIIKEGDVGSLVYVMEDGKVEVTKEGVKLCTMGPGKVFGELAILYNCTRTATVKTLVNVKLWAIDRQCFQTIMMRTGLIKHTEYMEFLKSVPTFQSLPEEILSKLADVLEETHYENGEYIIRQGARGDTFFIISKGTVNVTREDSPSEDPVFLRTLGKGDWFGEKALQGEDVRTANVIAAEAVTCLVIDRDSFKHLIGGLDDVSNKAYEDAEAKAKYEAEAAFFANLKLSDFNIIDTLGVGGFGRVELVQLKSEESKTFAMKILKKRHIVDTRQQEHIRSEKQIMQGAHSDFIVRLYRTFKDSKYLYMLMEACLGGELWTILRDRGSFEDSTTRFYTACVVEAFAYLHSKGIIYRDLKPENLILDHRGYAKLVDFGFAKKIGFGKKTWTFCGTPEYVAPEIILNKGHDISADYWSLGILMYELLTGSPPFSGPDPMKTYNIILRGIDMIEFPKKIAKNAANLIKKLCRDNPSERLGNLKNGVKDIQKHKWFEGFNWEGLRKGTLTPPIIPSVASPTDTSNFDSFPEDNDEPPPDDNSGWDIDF
Nature of the assay: Determination of Protein Kinase G inhibition (selectivity). The conditions noted are these: from IC50 values. Here is the method:
(§1) 2) Determination of Protein Kinase a and Protein Kinase G Inhibition
(§2) To measure PKA and PKG1-beta inhibition, IC50 values were determined according to the following protocol:
(§3) Active recombinant human PKG1-beta (full-length, with N-terminal His-tag) was purchased from Millipore GmbH, Schwalbach, Germany. Active recombinant human PKA (residues 1-351, N-terminal His-tag) was obtained from Invitrogen, Karlsruhe, Germany. The peptide substrate, Fluorescein-[…]-COOH, was obtained from JPT Peptide Technologies, Berlin, Germany. Adenosine-5′-triphosphate (ATP), bovine serum albumine (BSA), dimethylsulphoxide (DMSO), 4-(2-Hydroxyethyl)piperazine-1-ethanesulfonic acid (Hepes), Brij-35, dithiothreitol (DTT) and Pluronic F-68 were purchased from Sigma-Aldrich, Munich, Germany. Tris(hydroxymethyl)-aminomethane (Tris), magnesium chloride, NaOH, 1M HCl and EDTA were obtained from Merck Biosciences, Darmstadt, Germany. “Complete” protease inhibitor was from Roche Diagnostics, Mannheim, Germany. Test compounds were diluted to the appropriate concentrations in buffer 1 (25 mM Tris-HCl, pH 7.4, 5 mM MgCl2, 2 mM DTT, 0.02% (w/v) BSA, 0.01% Pluronic F-68 and 3% DMSO). PKG1-beta and PKA were diluted to concentrations of 150 ng/ml and 30 ng/ml, respectively, in buffer 2. The peptide substrate and ATP were diluted to concentrations of 3 μM and 120 μM, respectively, in the buffer 2. Two μl of the compound solution were mixed with 2 μl of the diluted enzyme in a 384-well small volume microtiter plate (Greiner, Bio-One, Frickenhausen, Germany), and the kinase reaction was initiated by addition of 2 μl of the solution containing peptide substrate and ATP. After 60 min incubation at 32° C., the reaction was stopped by addition of 20 μl of a solution containing 100 mM Hepes-NaOH, pH 7.4, 0.015% (v/v) Brij-35, 45 mM EDTA and 0.227% chip coating reagent 1 (Caliper Lifescience Inc, Hopkinton, Mass.). Phosphorylation of the substrate peptide was then detected on a Caliper 3000 instrument essentially as described by Pommereau et al (J. Biomol. Screening 9(5), 409-416, 2004). Separation conditions were as follows: Pressure −1.3 psi, upstream voltage −1562 V, downstream voltage −500 V, sample sip time 200 ms, Positive controls (buffer 1 instead of compound) and negative controls (buffer 1 instead of compound and buffer 2 instead of kinase solution) were run in parallel on each plate. The following products/compounds were tested in said assay by using the respective form (salt or free base) obtained as in the examples described above and the following activities were measured.

Assay [2] concerns the target T2, recombinant human PKA (Homo sapiens, UniProt P17612).
T2 construct: recombinant human PKA (residues 1-351, N-terminal His-tag); His-tag (N); purchased Invitrogen, Karlsruhe, Germany
The experiment in a line: Determination of Protein Kinase A inhibition (selectivity). The conditions noted are these: from IC50 values. The method, then:
as §1, §2, §3

Assay [3] deals with T3, human recombinant ROCK II (Homo sapiens, UniProt O75116).
T3 construct: recombinant human ROCK-II residues 11-552; His6 (N); purchased Millipore GmbH, Schwalbach, Germany
Nature of the assay: Determination of Rho kinase inhibition (ROCK II, Caliper peptide phosphorylation assay). Particulars: respective form (salt or free base) as obtained in the examples, 60 min at 32° C. The method in brief:
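Enzyme: active N-terminal His6-tagged recombinant human ROCK-II, residues 11-552. Substrate: a fluorescein-labelled peptide, with ATP. IC50 values were determined.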

T3 sequence (O75116 11-552): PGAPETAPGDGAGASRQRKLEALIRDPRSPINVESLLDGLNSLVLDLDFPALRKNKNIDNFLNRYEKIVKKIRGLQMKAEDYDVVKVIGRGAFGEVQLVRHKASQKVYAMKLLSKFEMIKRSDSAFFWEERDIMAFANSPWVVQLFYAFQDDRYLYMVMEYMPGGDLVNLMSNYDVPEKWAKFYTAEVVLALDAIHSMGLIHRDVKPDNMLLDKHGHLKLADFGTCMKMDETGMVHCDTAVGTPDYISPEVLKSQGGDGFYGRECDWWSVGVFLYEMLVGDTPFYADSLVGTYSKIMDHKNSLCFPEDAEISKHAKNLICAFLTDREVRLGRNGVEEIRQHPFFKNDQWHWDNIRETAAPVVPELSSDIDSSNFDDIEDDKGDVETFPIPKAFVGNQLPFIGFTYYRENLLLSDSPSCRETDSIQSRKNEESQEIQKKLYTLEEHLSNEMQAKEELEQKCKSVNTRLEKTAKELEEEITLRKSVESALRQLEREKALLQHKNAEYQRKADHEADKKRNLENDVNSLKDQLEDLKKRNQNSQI

Take `CCC(N)[C@]1(C2CC2)CC[C@H](Oc2cc3cc[nH]c(=O)c3cc2Cl)CC1` (stereo partly drawn) [Example 74, cis-6-[4-(1-Amino-propyl)-4-cyclopropyl-cyclohexyloxy]-7-chloro-2H-isoquinolin-1-one]: the “Selectivity against PKG” value in assay [1] is more than 1000 fold. For the same compound, the “Selectivity against PKA” value in assay [2] was more than 1000 fold. Further, the IC50 in assay [3] was not above 10 nM.
Take `CCC(N)C1(CC)CCC(Oc2cc3cc[nH]c(=O)c3cc2Cl)CC1` (single isomer, unassigned) [Example 108]: the “Selectivity against PKG” value in assay [1] was more than 10 fold. For the same compound, the “Selectivity against PKA” value in assay [2] is more than 1000 fold. The pIC50 entry in assay [3] was “+++++++ (8.0 ≦ pIC50)”.
On to `CCC1(C(C)N)CCC(Oc2cc3cc[nH]c(=O)c3cc2Cl)CC1` (single isomer, unassigned) [Example 3, 6-[4-(1-Amino-ethyl)-4-ethyl-cyclohexyloxy]-7-chloro-2H-isoquinolin-1-one], for which the “Selectivity against PKG” value in assay [1] is given as more than 1000 fold. Further, the “Selectivity against PKA” value in assay [2] is reported as more than 1000 fold. Moreover, the IC50 in assay [3] is not above 10 nM.
For `CC(C)CC(N)[C@]1(CC2CC2)CC[C@H](Oc2cc3cc[nH]c(=O)c3cc2Cl)CC1` (stereo partly drawn) [Example 64, cis-6-[4-(1-Amino-3-methyl-butyl)-4-cyclopropyl-methyl-cyclohexyloxy]-7-chloro-2H-isoquinolin-1-one], the “Selectivity against PKG” value in assay [1] is more than 300 fold. In addition, in assay [2], the “Selectivity against PKA” value is on record as more than 1000 fold. Further, the IC50 in assay [3] was not above 10 nM.
On to `CCC(N)C1(C2CCOCC2)CCC(Oc2cc3cc[nH]c(=O)c3cc2Cl)CC1` (single isomer, unassigned) [Example 106], for which the “Selectivity against PKG” value in assay [1] was more than 1000 fold. Besides, the “Selectivity against PKA” value in assay [2] is reported as more than 1000 fold. For the same compound, the IC50 in assay [3] was not above 10 nM.
`CCC(N)[C@]1(C2CCCCC2)CC[C@H](Oc2cc3cc[nH]c(=O)c3cc2Cl)CC1` (stereo partly drawn) [Example 65]: in assay [1], the “Selectivity against PKG” value is more than 100 fold. For the same compound, the “Selectivity against PKA” value in assay [2] is recorded as more than 300 fold. Besides, in assay [3], the half-inhibitory concentration (IC50) is 10 to 100 nM.
For `NC(C1CC1)[C@]1(CC2CCOCC2)CC[C@H](Oc2cc3cc[nH]c(=O)c3cc2Cl)CC1` (stereo partly drawn) [Example 68, cis-6-[4-(Amino-cyclopropyl-methyl)-4-(tetrahydro-pyran-4-ylmethyl)-cyclohexyloxy]-7-chloro-2H-isoquinolin-1-one], the “Selectivity against PKG” value in assay [1] is more than 300 fold. Further, the “Selectivity against PKA” value in assay [2] is more than 1000 fold. In assay [3], the IC50 is not above 10 nM.
Regarding `CCC(N)[C@]1(CC)CC[C@H](Oc2cc3cc[nH]c(=O)c3cc2Cl)CC1` (stereo partly drawn) [Example 34, cis-6-[4-(1-Amino-propyl)-4-ethyl-cyclohexyloxy]-7-chloro-2H-isoquinolin-1-one], the “Selectivity against PKG” value in assay [1] is on record as more than 300 fold. For the same compound, the “Selectivity against PKA” value in assay [2] is more than 1000 fold. For the same compound, the IC50 in assay [3] was not above 10 nM.
Regarding `CCCC(N)C1(CC2CC2)CCC(Oc2cc3cc[nH]c(=O)c3cc2Cl)CC1` (single isomer, unassigned) [Example 14, 6-[4-(1-Amino-butyl)-4-cyclopropylmethyl-cyclohexyloxy]-7-chloro-2H-isoquinolin-1-one], in assay [1], the “Selectivity against PKG” value is reported as more than 100 fold. Moreover, the “Selectivity against PKA” value in assay [2] is reported as more than 1000 fold. Besides, the IC50 in assay [3] was not above 10 nM.
In the same order, the values of `CCCC(N)[C@]1(C)CC[C@H](Oc2cc3cc[nH]c(=O)c3cc2Cl)CC1` (stereo partly drawn) [Example 62, cis-6-[4-(1-Amino-butyl)-4-methyl-cyclohexyloxy]-7-chloro-2H-isoquinolin-1-one] are more than 100 fold, more than 1000 fold and not above 10 nM.
For the compound `CC[C@]1(C(N)CF)CC[C@H](Oc2cc3cc[nH]c(=O)c3cc2Cl)CC1` (stereo partly drawn) [Example 96, trans-6-[4-(1-Amino-2-fluoro-ethyl)-4-ethyl-cyclohexyloxy]-7-chloro-2H-isoquinolin-1-one], the “Selectivity against PKG” value in assay [1] is reported as more than 100 fold. Besides, the “Selectivity against PKA” value in assay [2] is reported as more than 300 fold. For the same compound, the IC50 in assay [3] is 10 to 100 nM.
Turning to `NC(C1CC1)C1(CC2CC2)CCC(Oc2cc3cc[nH]c(=O)c3cc2Cl)CC1` (single isomer, unassigned) [Example 16, 6-[4-(Amino-cyclopropyl-methyl)-4-cyclopropylmethyl-cyclohexyloxy]-7-chloro-2H-isoquinolin-1-one], the “Selectivity against PKG” value in assay [1] was more than 300 fold. The “Selectivity against PKA” value in assay [2] is recorded as more than 300 fold. For the same compound, the half-maximal inhibitory concentration (IC50) in assay [3] is not above 10 nM.
Turning to `CCCC1(C(N)CC)CCC(Oc2cc3cc[nH]c(=O)c3cc2Cl)CC1` (single isomer, unassigned) [Example 5, 6-[4-(1-Amino-propyl)-4-propyl-cyclohexyloxy]-7-chloro-2H-isoquinolin-1-one], the “Selectivity against PKG” value in assay [1] is recorded as more than 1000 fold. Moreover, the “Selectivity against PKA” value in assay [2] is given as more than 1000 fold. For the same compound, the IC50 in assay [3] was not above 10 nM.
As for `CC(N)C1(CC2CC2)CCC(Oc2cc3cc[nH]c(=O)c3cc2Cl)CC1` (single isomer, unassigned) [Example 11, 6-[4-(1-Amino-ethyl)-4-cyclopropylmethyl-cyclohexyloxy]-7-chloro-2H-isoquinolin-1-one], the “Selectivity against PKG” value in assay [1] was more than 300 fold. Also, in assay [2], the “Selectivity against PKA” value is recorded as more than 100 fold. In assay [3], the IC50 is 10 to 100 nM.
With `CCC1(C(C)N)CCC(Oc2cc3cc[nH]c(=O)c3cc2Cl)CC1` (single isomer, unassigned) [Example 4, 6-[4-(1-Amino-ethyl)-4-ethyl-cyclohexyloxy]-7-chloro-2H-isoquinolin-1-one], the “Selectivity against PKG” value in assay [1] is reported as more than 100 fold. Moreover, the “Selectivity against PKA” value in assay [2] is listed as more than 300 fold. Also, in assay [3], the IC50 was 10 to 100 nM.
In the case of `CCC(N)[C@]1(C2CCOCC2)CC[C@H](Oc2cc3cc[nH]c(=O)c3cc2Cl)CC1` (single isomer, unassigned) [Example 2, 6-[4-(1-Aminopropyl)-4-(tetrahydropyran-4-yl)-cyclohexyloxy]-7-chloro-2H-isoquinolin-1-one], in assay [1], the “Selectivity against PKG” value was more than 1 fold. Moreover, the “Selectivity against PKA” value in assay [2] is more than 10 fold. Besides, the IC50 in assay [3] was 100 to 1000 nM.
Take `CC(N)[C@]1(C2CC2)CC[C@H](Oc2cc3cc[nH]c(=O)c3cc2Cl)CC1` (stereo partly drawn) [Example 72, cis-6-[4-(1-Amino-ethyl)-4-cyclopropyl-cyclohexyloxy]-7-chloro-2H-isoquinolin-1-one]: the “Selectivity against PKG” value in assay [1] is more than 100 fold. In addition, in assay [2], the “Selectivity against PKA” value is on record as more than 300 fold. Also, the IC50 in assay [3] is 10 to 100 nM.
Consider `CCC[C@]1(C(C)N)CC[C@@H](Oc2cc3cc[nH]c(=O)c3cc2Cl)CC1` (stereo partly drawn) [Example 77, cis-6-[4-(1-Amino-ethyl)-4-propyl-cyclohexyloxy]-7-chloro-2H-isoquinolin-1-one], for which, in assay [1], the “Selectivity against PKG” value was more than 300 fold. In assay [2], the “Selectivity against PKA” value is on record as more than 1000 fold. Further, the IC50 in assay [3] was not above 10 nM.
